Source: PMC3805374 (Life sciences, 2013)

What was measured:
[1] = target: T1, FLAG-mDOPR (Mus musculus, UniProt P32300); format: cell-based; settings: 10 μM pretreatment for 30 min or 24 h
[2] = target: D1R (Rattus norvegicus, UniProt P18901); test: cAMP level in NG108-15/HA-D1R and CHO-FLAG-DOPR/HA-D1R cells; format: cell-based; settings: NG108-15/HA-D1R cells and CHO-FLAG-DOPR/HA-D1R cells; data not shown
[3] = tested on: ERK1/2 phosphorylation; test: Immunoblot analysis of phosphorylated ERK1/2 in CHO-FLAG-DOPR/HA-D1R cells; format: cell-based, Chinese hamster; settings: 10 μM for 30 min
[4] = target: endogenous DOPR (Mus musculus, UniProt P32300); test: DPDPE-stimulated [35S]GTPγS binding to membranes of NG 108-15-HA-D1R cells; format: biochemical, mouse neuroblastoma × rat glioma hybrid; settings: NG 108-15-HA-D1R cells pretreated with 10 μM for 30 min, n=3
endogenous DOPR, sequence (P32300 whole entry): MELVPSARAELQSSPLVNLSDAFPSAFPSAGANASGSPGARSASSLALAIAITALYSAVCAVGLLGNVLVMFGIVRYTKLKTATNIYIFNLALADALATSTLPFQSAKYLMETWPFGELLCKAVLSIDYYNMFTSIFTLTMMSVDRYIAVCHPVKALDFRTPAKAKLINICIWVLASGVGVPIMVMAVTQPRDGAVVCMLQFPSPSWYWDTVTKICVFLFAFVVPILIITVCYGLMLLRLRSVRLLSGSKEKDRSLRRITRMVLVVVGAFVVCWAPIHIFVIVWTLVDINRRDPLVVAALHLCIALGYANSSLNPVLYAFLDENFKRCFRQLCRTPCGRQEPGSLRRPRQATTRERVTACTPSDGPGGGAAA

[5] = target: T1, FLAG-mDOPR; test: Phosphorylation of the DOPR; format: cell-based; settings: CHO-FLAG-DOPR/HA-D1R cells; 10 μM for 30 min
[6] = target: FLAG-mouse DOPR (Mus musculus, UniProt P32300); format: biochemical; settings: CHO-FLAG-DOPR/HA-D1R cells pretreated with 10 μM for 30 min, n=3
FLAG-mouse DOPR, sequence (P32300 whole entry): as above

T1 sequence (P32300 whole entry): as above
D1R, sequence (P18901 whole entry): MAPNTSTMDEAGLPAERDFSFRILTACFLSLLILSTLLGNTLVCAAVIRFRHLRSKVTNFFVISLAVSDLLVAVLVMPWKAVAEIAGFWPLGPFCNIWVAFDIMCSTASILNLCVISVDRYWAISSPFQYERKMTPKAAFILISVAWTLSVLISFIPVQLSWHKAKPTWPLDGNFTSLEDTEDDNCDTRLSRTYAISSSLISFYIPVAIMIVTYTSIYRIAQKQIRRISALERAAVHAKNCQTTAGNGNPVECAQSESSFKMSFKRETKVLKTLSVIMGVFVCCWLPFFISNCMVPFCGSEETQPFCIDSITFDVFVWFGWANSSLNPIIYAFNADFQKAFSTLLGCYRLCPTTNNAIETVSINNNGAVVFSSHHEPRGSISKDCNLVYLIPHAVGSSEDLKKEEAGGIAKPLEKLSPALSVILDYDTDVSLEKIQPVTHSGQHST

`Br.C=CCN1CCc2c(cc(O)c(O)c2Cl)C(c2ccccc2)C1` (racemic) [SKF-82958, (±)-chloro-APB HBr] was tested, and the “Effect on total or cell surface DOPRs” value [1] was “did not affect total or cell surface DOPRs”, the cAMP level [2] was “dose-dependently increased cAMP level” and the “ERK1/2 phosphorylation compared with the control” value [3] was “produced a marked increase in ERK1/2 phosphorylation”. For the same compound, the “Basal [35S]GTPγS binding after pretreatment” value [4] was 14.5 ± 1.9 fmol/mg protein, the “Phosphorylation of the DOPR” value [5] was “did not induce phosphorylation of the DOPR” and the “Basal [35S]GTPγS binding after pretreatment” value [6] was 42.6 ± 7.0 fmol/mg protein.
